Experimental data published in patent US20240207293A1, “COMPOSITION FOR IMPROVING INTESTINAL MICROBIAL POPULATION COMPRISING GALACTOSE” (Quorum Bio Co., Ltd., priority 2021, published 2024).

Experiments:
Type in all cases: in vivo, C57BL/6J mouse
Alistipes = experiment: Metagenome analysis of feces in high-fat diet induced obesity model: proportion of Alistipes; conditions: for Alistipes Average (%): feces after 8 weeks
Protocol: (§1) A 5-week-old male C57BL/6J mouse prepared in Example 1.2 were used after a 2-week acclimatization process, and then adjustment of body weight for each group. From the time the mouse reached 7 weeks of age, obesity was induced with a high fat diet (HFD). The mice were fed ad libitum with a general feed or a high-fat diet feed for 16 weeks, and PBS and galactose were orally administered daily to each group. The input amount and the remaining amount of the feed were measured twice a week to calculate daily caloric intake, and the body weight was measured once a week at a designated time. For microbiome analysis, feces were collected as shown in FIG. 1 and analysis was requested to Macrogen Inc. Feces were collected after selecting five mice whose body weight was closest to the average. The number of animals in each group was set to 8. After 8 weeks of the experiment, metagenome analysis was performed by collecting feces from the 3rd group (HFD-PBS), the 5th group (HFD-Gal 100 mg/kg), and the 6th group (HFD-Gal 50 mg/kg). The results of the metagenomic analysis were obtained by requesting metagenome sequencing to Macrogen Co., Ltd. For the experimental results, significance was tested using the TTEST method, and when the P value was less than 0.05, that value was determined to be significant ((*)<0.05, (**)<0.01, (***)<0.001).

[1] = Measurement of body weight (weight gain) in mice on normal or high-fat diet; conditions: 16 weeks, oral daily, n=8
Protocol: A 5-week-old male C57BL/6J mouse prepared in Example 1.2 were used after a 2-week acclimatization process, and then adjustment of body weight for each group. From the time the mouse reached 7 weeks of age, obesity was induced with a high fat diet (HFD). The mice were fed ad libitum with a general feed or a high-fat diet feed for 16 weeks, and PBS and galactose were orally administered daily to each group. The input amount and the remaining amount of the feed were measured twice a week to calculate daily caloric intake, and the body weight was measured once a week at a designated time. During the experimental period (16 weeks) designed in Example 1.3, the body weight of the experimental animals were measured at a predetermined time every week before administration of galactose or PBS, and body weight change (weight gain) and survival rate were measured (allowed to euthanize if the body weight decreases to less than 20% of the initial body weight). The weight gain was calculated by setting the body weight (initial body weight) of the experimental animal at 7 weeks of age as 100% and then calculating the body weight measured at each time point as a relative value to the initial body weight.

[2] = Intraperitoneal glucose tolerance test
Protocol: The experimental animals were kept hungry (12-hour fasting) from 9:00 p.m. the day before the test to 9:00 a.m. the day of the test, and then a blood glucose test was performed. To keep a hungry condition, feed and straw litter were removed to induce fasting. A 10% (w/v) glucose (in PBS) solution sterilized by 0.2 μm filtration was prepared. After intraperitoneally administering 2 mg glucose/g, volume=body weight*20 (μl) for each individual, the mice were again put in the cage, and blood glucose levels were measured every 0, 30, 60, 90, and 120 minutes. The blood glucose tests were performed by collecting blood from the caudal vein. The intraperitoneal glucose tolerance test was performed 13 weeks after inducing obesity with a high-fat diet.

Lactobacillus = experiment: Metagenome analysis of feces in high-fat diet induced obesity model: proportion of Lactobacillus; conditions: for Lactobacillus Average (%): feces after 8 weeks
Protocol: as §1

Akkermansia = experiment: Metagenome analysis of feces in high-fat diet induced obesity model: proportion of Akkermansia; conditions: for Akkermansia Average (%): feces after 8 weeks
Protocol: as §1

[3] = group 5: high fat diet, galactose 100 mg/kg oral daily
[4] = group 6: high fat diet, galactose 50 mg/kg oral daily
[5] = high fat diet, galactose-administered group vs PBS control

With `O=C[C@H](O)[C@@H](O)[C@@H](O)[C@H](O)CO` [Galactose, galactose] the “Alistipes Average (%)” value (Alistipes; [3]) was 1.0275%, the “Alistipes Average (%)” value (Alistipes; [4]) was 1.9675% and the “proportion of Alistipes as compared with a control group” value (Alistipes; [5]) was “increased”. The “weight gain vs PBS-administered group” value ([1]; general diet group) was “no significant difference”, the “weight gain vs PBS-administered group” value ([1]; high-fat diet feed group) was “significantly reduced” and the “blood sugar levels at 120 minutes” value ([2]; high-fat diet group, measured at 120 minutes after i.p. glucose) was “comparable to those in the normal diet group”. The “blood glucose level vs control group (PBS-administered)” value ([2]; high-fat diet intake group (HD), 13 weeks after inducing obesity, 2 mg glucose/g i.p.) was “significantly decreased”, the “blood glucose by galactose administration” value ([2]; normal diet intake group (ND), 2 mg glucose/g i.p., 12-hour fasting) was “decreased” and the “Lactobacillus Average (%)” value (Lactobacillus; [3]) was 3.8375%. The “Lactobacillus Average (%)” value (Lactobacillus; [4]) was 2.17%, the “proportion of Lactobacillus as compared with a control group” value (Lactobacillus; [5]) was “increased” and the “Akkermansia Average (%)” value (Akkermansia; [3]) was 1.365%. For the same compound, the “Akkermansia Average (%)” value (Akkermansia; [4]) was 0.135% and the “proportion of Akkermansia as compared with a control group” value (Akkermansia; [5]) was “increased”.
